Entries after “also recorded” stand apart in the source; their conditions may differ.
Columns and labels:
[1] = molecular target: T1, EthR-VP16 binding to OethR (Mycobacterium bovis, UniProt Q7TVI1); assay: cell-based; type: cell-based, M. tuberculosis
[2] = system: HEK-293; details: HEK-293 with constitutive SEAP expression, 0-3.2 mM, 48 h
[3] = system: E-ETR interaction; assay: Specificity control ELISA, macrolide-dependent repressor E and operator ETR; type: binding; details: ELISA set-up as FIG. 2B
Description: To exclude that 2-phenylethyl butyrate indiscriminatingly modulates protein-DNA interactions the macrolide-dependent repressor-operator configuration is challenged with this compound in an identical ELISA set-up as shown in FIG. 2B. The E-ETR interaction is insensitive to 2-phenylethyl butyrate (PEB) and can exclusively be abolished in the presence of erythromycin (EM, 5 μg/ml).
The repressor protein E binds to its cognate operator sequence ETR and is released thereof in the presence of macrolide antibiotics like erythromycin as described in U.S. Pat. No. 7,273,723.
EthR-his6 is produced as previously described for E-his6 [Weber, C. C. et al., supra] with the exception that the biotinylated operator sequence (OethR) is incubated with a 100 μl streptavidin agarose bead suspension (Novagen, Madison, Wis., USA, cat. no. 69203) for 1 h at 4° C. while rotating.

[4] = system: M. bovis BCG; type: cell-based
[5] = system: M. tuberculosis H37Rv; type: cell-based
[6] = mouse, in vivo, ip
[7] = molecular target: T1, EthR-VP16 binding to OethR; type: in vivo; details: mice, 625 μl/kg injected 1 and 25 h post implantation, serum at 48 h
[8] = molecular target: EthR-OethR interaction (Mycobacterium bovis, UniProt Q7TVI1); type: binding, M. tuberculosis; details: ELISA, E. coli cell lysate, OD450
Sequence of EthR-OethR interaction (Q7TVI1 whole entry, looked up): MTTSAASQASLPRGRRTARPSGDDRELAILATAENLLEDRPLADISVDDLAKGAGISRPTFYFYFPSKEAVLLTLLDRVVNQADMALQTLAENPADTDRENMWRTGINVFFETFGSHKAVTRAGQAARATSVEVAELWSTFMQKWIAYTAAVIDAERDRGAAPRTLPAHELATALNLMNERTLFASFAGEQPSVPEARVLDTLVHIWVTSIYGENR

[9] = HEK-293 with EthR-based gene circuit, 0-3.2 mM, 48 h

T1 sequence (Q7TVI1 whole entry, looked up): as above

In the case of `CCC(=O)OCCCc1ccccc1` [3-Phenylpropyl propionate], the SEAP expression [1, 9] is reported as “significant decrease in SEAP expression”.

With `CC(=O)OCc1ccccc1` [Benzyl acetate] the SEAP expression [1, 9] was “significant decrease in SEAP expression”.

For `CC(=O)CCc1ccccc1` [4-Phenyl-2-butanone], the cytotoxicity [2] was “does not correlate with cytotoxicity” and the SEAP expression [1, 9] was “significant decrease in SEAP expression”.

With `CC[C@H]1OC(=O)[C@H](C)[C@@H](O[C@H]2C[C@@](C)(OC)[C@@H](O)[C@H](C)O2)[C@H](C)[C@@H](O[C@@H]2O[C@H](C)C[C@H](N(C)C)[C@H]2O)[C@](C)(O)C[C@@H](C)C(=O)[C@H](C)[C@@H](O)[C@]1(C)O` [erythromycin, reference compound] the E-ETR interaction ([3]; 5 μg/ml) was “abolished”.

With `CCCC(=O)OCCc1ccccc1` [2-Phenylethyl butyrate] the E-ETR interaction ([3]; 2-phenylethyl butyrate) was “insensitive”, the “growth inhibition of M. bovis BCG in combination with ethionamide” value ([4]; 0.5 and 2 mM with sub-inhibitory ethionamide 0.25 and 0.5 μg/ml) was “dose-dependently inhibited; also recorded: Synergistic effect” and the “growth inhibitory effect alone, M. bovis BCG” value ([4]; without ethionamide) was “does not show any growth inhibitory effect”. For the same compound, the “growth inhibition of M. tuberculosis H37Rv in combination with ethionamide” value [5] was “dose-dependently inhibited; also recorded: Synergistic effect”, the “growth inhibitory effect alone, M. tuberculosis H37Rv” value [5] was “does not show any growth inhibitory effect” and the “inflammation at the injection site” value [6] was “no inflammation at the injection site”. For the same compound, the IC50 [1] was 500 µM, the SEAP expression [1, 9] was “significant decrease in SEAP expression” and the SEAP serum levels [7] was 0.21±0.03 U/L. The “modulation of the EthR-OethR interaction” value [8] was “exclusively and specifically modulates the EthR-OethR interaction”.

For `CCCCCCCCCCCCCCCCOC(=O)CCCCCCC` [Hexadecyl octanoate, reference compound], the SEAP expression ([1]; HEK-293 containing pWW489 and pWW491, 10 mM) was “fails to decrease SEAP expression”.

From patent US9050295B2, “Composition for treatment of tuberculosis” (ETH Zurich, priority 2007, dated 2015)
